Measured values reported in paper PMC7178874, “The antibiotic furagin and its derivatives are isoform-selective human carbonic anhydrase inhibitors” (Journal of Enzyme Inhibition and Medicinal Chemistry, 2020).

Assays:
Assay in all cases: stopped-flow CO2 hydration assay
Assay type in all cases: biochemical
[1] = target: T1, hCA IX (Homo sapiens, UniProt Q16790); settings: read-out: KI (nM)* / CA IX
T1 construct: gene CA9; recombinant, obtained in-house
Excerpt: stopped-flow CO2 hydration assay on hCA IX

[2] = target: T2, hCA II (Homo sapiens, UniProt P00918); settings: read-out: KI (nM)* / CA II (converted)
T2 construct: gene CA2; recombinant, obtained in-house
Excerpt: stopped-flow CO2 hydration assay on hCA II

[3] = target: T3, hCA XII (Homo sapiens, UniProt O43570); settings: read-out: KI (nM)* / CA XII
T3 construct: gene CA12; recombinant, obtained in-house
Excerpt: stopped-flow CO2 hydration assay on hCA XII

[4] = target: T4, hCA I (Homo sapiens, UniProt P00915); settings: read-out: KI (nM)* / CA I (converted)
T4 construct: gene CA1; recombinant, obtained in-house
Excerpt: stopped-flow CO2 hydration assay on hCA I

T3 sequence (O43570 25-354 limits assumed): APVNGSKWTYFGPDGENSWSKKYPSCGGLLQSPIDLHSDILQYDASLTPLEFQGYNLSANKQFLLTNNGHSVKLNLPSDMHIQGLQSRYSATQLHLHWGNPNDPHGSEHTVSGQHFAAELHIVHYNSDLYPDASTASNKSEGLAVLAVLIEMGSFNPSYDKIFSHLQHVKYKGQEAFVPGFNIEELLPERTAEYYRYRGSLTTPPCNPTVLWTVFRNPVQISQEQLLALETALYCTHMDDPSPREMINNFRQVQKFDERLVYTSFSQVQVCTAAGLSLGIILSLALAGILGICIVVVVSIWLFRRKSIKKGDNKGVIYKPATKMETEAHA
T4 sequence (P00915 2-261): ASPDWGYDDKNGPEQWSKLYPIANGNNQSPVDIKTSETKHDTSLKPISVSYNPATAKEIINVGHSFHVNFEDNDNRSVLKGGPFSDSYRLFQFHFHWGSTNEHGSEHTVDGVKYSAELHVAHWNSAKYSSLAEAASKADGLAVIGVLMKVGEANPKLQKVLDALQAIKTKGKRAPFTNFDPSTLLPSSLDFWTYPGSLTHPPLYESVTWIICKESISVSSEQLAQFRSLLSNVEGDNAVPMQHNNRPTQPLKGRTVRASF

Compound | Ki [1] [nM] | Ki [2] [nM] | Ki [3] [nM] | Ki [4] [nM]
O=C1CN(N=Cc2ccccc2)C(=O)N1 [compound 2, 1-(Benzylideneamino)-imidazolidine-2,4-dione] | 3500 | 900 | 5600 | 39600
O=C1CN(N=Cc2ccc([N+](=O)[O-])cc2)C(=O)N1 [compound 4, 1-((4-Nitrobenzylidene)amino)imidazolidine-2,4-dione] | 7400 | 11100 | 2800 | > 100000
COC(=O)c1ccc(C=NN2CC(=O)NC2=O)cc1 [compound 5, Methyl 4-(((2,4-dioxoimidazolidin-1-yl)imino)methyl)benzoate] | 4900 | 8300 | 930 | > 100000
CC(C)=CC=NN1CC(=O)NC1=O [compound 10, 1-((3-Methylbut-2-en-1-ylidene)amino)imidazolidine-2,4-dione] | 2900 | 16500 | 880 | 28800
O=C1CN(N=Cc2ccc(O)cc2O)C(=O)N1 [compound 12, 1-((2,4-Dihydroxybenzylidene)amino)imidazolidine-2,4-dione] | 5800 | 59900 | 150 | > 100000
O=C1CN(N=Cc2ccc(B(O)O)cc2)C(=O)N1 [compound 13] | 7300 | 14200 | 230 | 90700
O=C1CN(N=Cc2ccccn2)C(=O)N1 [compound 14, 1-((Pyridin-2-ylmethylene)amino)imidazolidine-2,4-dione] | 4500 | 4200 | 1300 | 51800

Stronger by Ki [1], values ahead:

Ki [1] [nM] | Ki [2] [nM] | Ki [3] [nM] | Ki [4] [nM] | Compound
2300 | 620 | 3200 | 45600 | O=C1CN(N=Cc2cccnc2)C(=O)N1 [compound 15, 1-((Pyridin-3-ylmethylene)amino)imidazolidine-2,4-dione]
1600 | 3300 | 810 | 26600 | O=C1CN(N=Cc2ccncc2)C(=O)N1 [compound 16, 1-((Pyridin-4-ylmethylene)amino)imidazolidine-2,4-dione]
1200 | 6400 | 4700 | 57600 | COc1ccc(C=NN2CC(=O)NC2=O)cc1 [compound 3, 1-((4-Methoxybenzylidene)amino)imidazolidine-2,4-dione]
1100 | 4000 | 160 | 19100 | O=C1CN(N=CCCCC=NN2CC(=O)NC2=O)C(=O)N1 [compound 6, 1,1’-((Pentane-1,5-diylidene)bis(azaneylylidene))bis(imidazolidine-2,4-dione)]
850 | 710 | 1700 | 16800 | O=C1CN(N=Cc2ccoc2)C(=O)N1 [compound 7, 1-((Furan-3-ylmethylene)amino)imidazolidine-2,4-dione]
810 | 23600 | 440 | 45900 | CCOC(=O)/C=C/C=NN1CC(=O)NC1=O [compound 9, Ethyl (2E)-4-((2,4-dioxoimidazolidin-1-yl)imino)but-2-enoate]
560 | 12400 | 350 | 9600 | O=C1CN(N=Cc2cnc[nH]2)C(=O)N1 [compound 17, 1-(((1 h-Imidazol-5-yl)methylene)amino)imidazolidine-2,4-dione]
400 | 3100 | 360 | > 100000 | COc1ccc(/C=C/C=NN2CC(=O)NC2=O)cc1 [compound 11, 1-(((2e)-3–(4-methoxyphenyl)allylidene)amino)imidazolidine-2,4-dione]
350 | 540 | 910 | > 100000 | O=C1CN(N=Cc2ccc(OCc3ccccc3)cc2)C(=O)N1 [compound 8, 1-((4-(Benzyloxy)benzylidene)amino)imidazolidine-2,4-dione]
260 | 9600 | 57 | > 100000 | O=C1CN(/N=C/C=C/c2ccc([N+](=O)[O-])o2)C(=O)N1 [Furagin]
